Where two headings read alike, the source gives them in different places. Values belong to the compound of their own block, whether it stands above or below them.
Experiments:
[1] = molecular target: T1, human β1-adrenoceptor polymorphic variant Gly49/Gly389 (Homo sapiens, UniProt P08588, S49G); assay: 3H-cAMP accumulation, Gly49/Gly389; assay type: cell-based; design: expressed in transfected cells; pcDNA3.1); conditions: for Emax: read-out: % isop (% isoprenaline maximal response); for EC50 / Log EC50 Site 2: biphasic cAMP response; for EC50: read-out: Log EC50 Site 1 (converted)
Description: (§1) Cells were grown to confluence in clear plastic tissue culture treated 24-well plates and ^3H-cAMP accumulation performed as previously described. Briefly, cells pre-labelled with ^3H-adenine by incubation for 2 hours with 2 µCi/ml ^3H-adenine in serum-free media (0.5 ml per well). The cells were washed, then 1 ml serum-free media containing 1 mM IBMX (3-isobutyl-1-methylxanthine) was added to each well and the cells incubated for 15 minutes. Agonists (in 10 µl serum-free media) were added to each well and the plates incubated for 5 hours in order to maximise the responses. The assay was terminated by adding 50 µl concentrated HCl per well, the plates frozen, thawed and ^3H-cAMP separated from other ^3H-nucleotides by sequential Dowex and alumina column chromatography. […] Where pertussis toxin (PTX) was used, cells were incubated in the 24 well plates with PTX at 100 ng/ml for 24 hours before experimentation.
(§2) The affinities of antagonists (KD values, Table 3) were calculated from the shift of the agonist concentration response curve in the presence of a fixed concentration of antagonist using equation 5: [drawing 5] (5) where DR (dose ratio) is the ratio of the agonist concentration required to stimulate an identical response in the presence and absence of a fixed concentration of antagonist [B].

[2] = molecular target: T2, human wildtype β1-adrenoceptor (Ser49/Gly389) (Homo sapiens, UniProt P08588); assay: 3H-cAMP accumulation, wildtype; assay type: cell-based; design: expressed in transfected cells; conditions: for Emax: read-out: % isop (% isoprenaline maximal response); for Log EC50 Site 2 / EC50: biphasic cAMP response; for EC50: read-out: Log EC50 Site 1 (converted)
Description: as §1, §2

[3] = molecular target: T3, human β1-adrenoceptor polymorphic variant Ser49/Arg389 (Homo sapiens, UniProt P08588, G389R); assay: 3H-cAMP accumulation, Ser49/Arg389; assay type: cell-based; design: expressed in transfected cells; pcDNA3.1); conditions: for Emax: read-out: % isop (% isoprenaline maximal response); for Log EC50 Site 2 / EC50: biphasic cAMP response; for EC50: read-out: Log EC50 Site 1 (converted)
Description: as §1, §2

[4] = test system: endogenous P2y2 receptors; assay: 3H-inositol phosphate accumulation, positive controls; assay type: cell-based, Chinese Hamster; conditions: 100 µM
Description: Cells were grown to confluence in clear plastic tissue culture treated 24-well plates containing ^3H-myo-inositol (4 µCi/ml). Cells were washed then incubated for 30 minutes in 1 ml of serum free media containing 20 mM LiCl (37°C, 5% CO2). Agonists (in 10 µl) were then added and the incubation continued for 1 hour. All reagents were then removed and 1 ml of cold (−20°C) methanol/0.12M HCl (1∶1, v/v) added to each well. […] Total ^3H-inositol phosphate levels were determined by liquid scintillation counting. 100 µM ATP and 100 µM UTP was used as positive controls.

[5] = molecular target: T4, human adenosine A1 receptor (Homo sapiens, UniProt P30542); assay: 3H-cAMP accumulation in CHO-A1 cells, pertussis toxin control; assay type: cell-based; conditions: 100 ng/ml for 24 hours, CHO cells expressing the human adenosine A1 receptor
T4 construct: expressed in transfected cells
T4 sequence (P30542 1-326): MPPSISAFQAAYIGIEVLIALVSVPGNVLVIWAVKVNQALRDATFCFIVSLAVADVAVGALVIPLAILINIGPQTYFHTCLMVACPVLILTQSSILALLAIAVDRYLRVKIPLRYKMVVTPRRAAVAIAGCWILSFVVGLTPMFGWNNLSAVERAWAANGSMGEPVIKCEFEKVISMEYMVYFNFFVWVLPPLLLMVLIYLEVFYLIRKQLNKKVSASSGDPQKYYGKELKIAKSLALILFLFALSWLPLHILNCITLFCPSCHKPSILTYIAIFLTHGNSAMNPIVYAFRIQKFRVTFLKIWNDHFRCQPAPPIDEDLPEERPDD

[6] = molecular target: T2, human wildtype β1-adrenoceptor (Ser49/Gly389); assay: cell-based; conditions: Log KD
Description: (§3) The cells were washed twice with 200 µl 4°C phosphate buffered saline, 100 µl Microscint 20 was added to each well, and the plates counted on a Topcount at 21°C for 2 minutes per well.
(§4) All data points were performed in triplicate and each 96-well plate also contained 6 determinations of total and non-specific binding.

[7] = molecular target: T1, human β1-adrenoceptor polymorphic variant Gly49/Gly389; assay: cell-based; conditions: Log KD
Description: as §3, §4

[8] = molecular target: T3, human β1-adrenoceptor polymorphic variant Ser49/Arg389; assay: cell-based; conditions: Log KD
Description: as §3, §4

[9] = test system: ERK1/2 MAPKinase activation; assay: Alphascreen Surefire MAPKinase (pERK1/2) assay, positive control; assay type: cell-based, Chinese Hamster; conditions: 1 µM, 30 minutes
Description: Extracellular-signal-regulated kinases ERK1/2 activation was measured using a Surefire Alphascreen pERK1/2 kit as per manufacturer's instructions. Briefly, cells were grown to confluence in clear plastic tissue culture treated 96-well plates then serum starved by incubation in serum-free media for 24 hours before experimentation. Agonist in 20 µl was added to the well (1∶5 dilution in wells) and incubated for 5–60 minutes (37°C, 5% CO2). Reagents were then removed and 20 µl lysis buffer added to each well. Plates were frozen at −20°C overnight, thawed, and the assay then conducted as per manufacturer's instructions. After 2 hours in the dark, the plates were read on an Envision plate reader using standard Alphascreen settings. 1 µM phorbol ester was used as the positive control.

[10] = 3H-cAMP accumulation, main stable WT Ser49/Gly389 cell line (WT original), maximum defined by 10 µM isoprenaline
[11] = cells expressing Gly49/Gly389 receptor
[12] = cells expressing Ser49/Arg389 β1-receptors
[13] = cells expressing wildtype Ser49/Gly389 receptor

T1 sequence (P08588 whole entry S49G): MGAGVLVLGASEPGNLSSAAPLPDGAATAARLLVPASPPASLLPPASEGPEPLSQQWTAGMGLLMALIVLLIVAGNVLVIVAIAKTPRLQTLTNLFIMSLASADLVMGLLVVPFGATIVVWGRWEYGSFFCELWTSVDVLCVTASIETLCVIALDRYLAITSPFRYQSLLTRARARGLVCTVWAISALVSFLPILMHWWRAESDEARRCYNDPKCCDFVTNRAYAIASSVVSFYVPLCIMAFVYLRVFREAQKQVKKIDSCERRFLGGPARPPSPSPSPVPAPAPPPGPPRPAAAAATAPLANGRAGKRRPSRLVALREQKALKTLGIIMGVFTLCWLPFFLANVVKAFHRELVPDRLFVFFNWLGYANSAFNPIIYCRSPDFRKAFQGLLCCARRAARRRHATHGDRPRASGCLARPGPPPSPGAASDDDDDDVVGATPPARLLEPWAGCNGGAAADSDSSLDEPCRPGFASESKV
T2 sequence (P08588 whole entry): as the sequence (P08588 whole entry S49G) above, with G49S counted along it
T3 sequence (P08588 whole entry G389R): as the sequence (P08588 whole entry S49G) above, with G49S, G389R counted along it

Emax ([1]; 3H-cAMP accumulation, main stable Gly49/Gly389 cell line (original), maximum defined by 10 µM isoprenaline): 0%
Emax [2, 10]: 0%
Emax ([3]; 3H-cAMP accumulation, main stable Ser49/Arg389 cell line (original), maximum defined by 10 µM isoprenaline): 1.3 ± 0.2%
Compound: CC(C)NCC(O)COc1ccc(CC(N)=O)cc1 (stereo not shown) [Atenolol]

3H-inositol phosphate accumulation response [4, 11]: 2.77±0.40 fold over basal
3H-inositol phosphate accumulation response [4, 12]: 2.96±0.28 fold over basal
3H-inositol phosphate accumulation response [4, 13]: 2.18±0.17 fold over basal
Compound: Nc1ncnc2c1ncn2[C@@H]1O[C@H](COP(=O)(O)OP(=O)(O)OP(=O)(O)O)[C@@H](O)[C@H]1O [ATP]

The next lines start with the compound.

Compound: CNC[C@H](O)c1ccc(O)c(O)c1 [Adrenaline]
Emax [1]: 95.9 ± 3.2%
% isop (% isoprenaline maximal response) [2, 10]: full agonists
Emax [2]: 96.4 ± 2.1%
Emax [3]: 91.6 ± 2.2%

Compound: NC[C@H](O)c1ccc(O)c(O)c1 [Noradrenaline]
Emax [1]: 99.1 ± 3.7%
% isop (% isoprenaline maximal response) [2, 10]: full agonists
Emax [2]: 95.5 ± 2%
Emax [3]: 96 ± 3%

Compound: pertussis toxin (PTX)
Effect of pre-incubation on the cimaterol or CGP 12177 3H-cAMP responses ([1]; 100 ng/ml for 24 hours, Gly49/Gly389 receptor): no effect
Effect of pre-incubation on the cimaterol or CGP 12177 3H-cAMP responses ([2]; 100 ng/ml for 24 hours, WT receptor): no effect
Effect of pre-incubation on the cimaterol or CGP 12177 3H-cAMP responses ([3]; 100 ng/ml for 24 hours, Ser49/Arg389 receptor): no effect
Effect of pre-incubation on Gi-coupled inhibition of 3H-cAMP accumulation in response to cyclopentyladenosine (CPA) [5]: completely inhibited

Compound: CC(C)(Cc1c[nH]c2ccccc12)NCC(O)COc1ccccc1C#N (stereo not shown) [Bucindolol]
Kd ([6]; competition with 3H-CGP 12177, WT transiently transfected populations): 1.32 nM
Kd ([6]; competition with 3H-CGP 12177, additional stable WT cell line T3): 1.45 nM
Kd ([6]; competition with 3H-CGP 12177, additional stable WT cell line T88): 0.355 nM
Kd ([6]; competition with 3H-CGP 12177, whole cells, main stable CHO cell line WT (Ser49/Gly389)): 0.275 nM
% isoprenaline ([1]; % maximum isoprenaline response for the overall biphasic response, main Gly49/Gly389 cell line): 25.7±0.8%
% Site 1 ([1]; % of the response occurring at site 1, main Gly49/Gly389 cell line): 51.5±2.4%
% Site 1 ([1]; Gly49/Gly389 Cell line V6): 54.0 ± 2.7%
% Site 1 ([1]; Gly49/Gly389 Cell line V87): 69.3 ± 7.5%
EC50 ([1]; Gly49/Gly389 Cell line V6): 0.282 nM
Log EC50 Site 2 ([1]; Gly49/Gly389 Cell line V87): -7.34 ± 0.23
EC50 ([1]; Gly49/Gly389 Cell line V87): 0.309 nM
Log EC50 Site 2 ([1]; main Gly49/Gly389 cell line): −7.45±0.11
EC50 ([1]; main Gly49/Gly389 cell line): 0.417 nM
% isoprenaline ([1]; overall biphasic response, Gly49/Gly389 Cell line V6): 27.5 ± 1.0%
% isoprenaline ([1]; overall biphasic response, Gly49/Gly389 Cell line V87): 22.8 ± 1.1%
Kd ([7]; competition with 3H-CGP 12177, Gly49/Gly389 transiently transfected populations): 1.58 nM
Kd ([7]; competition with 3H-CGP 12177, additional stable Gly49/Gly389 cell line V87): 0.427 nM
Kd ([7]; competition with 3H-CGP 12177, whole cells, main stable CHO cell line Gly49/Gly389): 0.339 nM
% isoprenaline ([2]; % maximum isoprenaline response for the overall biphasic response, main WT Ser49/Gly389 cell line): 24.6±4.1%
% Site 1 ([2]; % of the response occurring at site 1, main WT Ser49/Gly389 cell line): 59.8±2.8%
% Site 1 ([2]; WT cell line T3): 75.6 ± 4.5%
% Site 1 ([2]; WT cell line T88): 48.0 ± 4.2%
Log EC50 Site 2 ([2]; WT cell line T3): -7.09 ± 0.15
EC50 ([2]; WT cell line T3): 0.708 nM
Log EC50 Site 2 ([2]; WT cell line T88): -7.46 ± 0.09
EC50 ([2]; WT cell line T88): 0.234 nM
Log EC50 Site 2 ([2]; main WT Ser49/Gly389 cell line): −7.53±0.05
EC50 ([2]; main WT Ser49/Gly389 cell line): 0.347 nM
% isoprenaline ([2]; overall biphasic response, WT cell line T3): 43.4 ± 2.0%
% isoprenaline ([2]; overall biphasic response, WT cell line T88): 23.6 ± 2.4%
% isoprenaline ([3]; % maximum isoprenaline response for the overall biphasic response, main Ser49/Arg389 cell line): 53.6±1.2%
% Site 1 ([3]; % of the response occurring at site 1, main Ser49/Arg389 cell line): 80.4±2.6%
% Site 1 ([3]; Ser49/Arg389 Cell line W81): 47.6 ± 3.3%
% Site 1 ([3]; Ser49/Arg389 Cell line W93): 51.5 ± 4.0%
Log EC50 Site 2 ([3]; Ser49/Arg389 Cell line W81): -6.22 ± 0.15
EC50 ([3]; Ser49/Arg389 Cell line W81): 0.724 nM
Log EC50 Site 2 ([3]; Ser49/Arg389 Cell line W93): -7.50 ± 0.07
EC50 ([3]; Ser49/Arg389 Cell line W93): 0.589 nM
Log EC50 Site 2 ([3]; main Ser49/Arg389 cell line): −6.98±0.19
EC50 ([3]; main Ser49/Arg389 cell line): 0.447 nM
% isoprenaline ([3]; overall biphasic response, Ser49/Arg389 Cell line W81): 34.8 ± 2.0%
% isoprenaline ([3]; overall biphasic response, Ser49/Arg389 Cell line W93): 32.8 ± 1.1%
Kd ([8]; competition with 3H-CGP 12177, Ser49/Arg389 transiently transfected populations): 1.82 nM
Kd ([8]; competition with 3H-CGP 12177, additional stable Ser49/Arg389 cell line W81): 0.275 nM
Kd ([8]; competition with 3H-CGP 12177, additional stable Ser49/Arg389 cell line W93): 0.646 nM
Kd ([8]; competition with 3H-CGP 12177, whole cells, main stable CHO cell line Ser49/Arg389): 0.347 nM

Compound: O=c1ccn([C@@H]2O[C@H](COP(=O)(O)OP(=O)(O)OP(=O)(O)O)[C@@H](O)[C@H]2O)c(=O)[nH]1 [UTP]
3H-inositol phosphate accumulation response [4, 11]: 2.32±0.29 fold over basal
3H-inositol phosphate accumulation response [4, 12]: 2.63±0.40 fold over basal
3H-inositol phosphate accumulation response [4, 13]: 1.87±0.11 fold over basal

Compound: CCCCCCCCCCCCCC(=O)O[C@@H]1[C@@H](C)[C@@]2(O)[C@@H](C=C(CO)C[C@]3(O)C(=O)C(C)=C[C@@H]23)[C@@H]2C(C)(C)[C@]12OC(C)=O [phorbol ester]
MAPKinase maximum stimulation ([9]; Gly49/Gly389 receptor cells): 12.6±3.8 fold over basal
MAPKinase maximum stimulation ([9]; Ser49/Arg389 receptor cells): 7.4±1.4 fold over basal
MAPKinase maximum stimulation ([9]; wildtype receptor cells): 11.9±1.6 fold over basal
